Experimental data: PMC3944532, “Mode of Action of Diterpene and Characterization of Related Metabolites from the Soft Coral, Xenia elongata” (Marine Drugs, 2014)
Where two headings read alike, the source gives them in different places.

Key:
P-388 = P-388 cells; cited from earlier work
HT-29 = HT-29 cells; cited from earlier work
A549 = A549 cells; cited from earlier work
W2 cells = experiment: Apoptosis induction assay (MTT viability), apoptosis competent W2 cells; format: cell-based, mouse; conditions: for optimal concentration for apoptosis induction: MTT, 0 to 48 h, apoptosis induction = at least 20% death of W2 cells and 10% or higher growth of D3 cells; for cell death in W2 cells: apoptosis competent W2
Protocol: In order to assess the pro-apoptotic activities of these compounds as a marker for their potential anticancer efficacy, methanol soluble fractions of Xenia extracts were tested for apoptosis induction in an MTT assay using the apoptosis competent W2 and apoptosis resistant D3 cells, as described in our previous work. […] To quantify apoptosis induction, viability was determined using an MTT assay. Measurements were taken at time 0 and 48 h after addition of compounds in different concentrations. Viability was calculated as the difference between time 0 (addition of compound) and 48 h. Apoptosis induction was defined as at least 20% death of W2 cells and a 10% or higher growth of D3 cells by MTT assay. The optimal concentration of the compounds for apoptosis induction was determined based on the dose response of the two cells lines by MTT assay. […] Treatment of W2 and D3 cells with 0.1 µM staurosporine, a protein kinase inhibitor and potent inducer of apoptosis, was included as a positive control for apoptosis induction and for comparison. Thus, the diterpenes we have isolated and characterized effectively and specifically activate apoptosis in immortalized mammalian epithelial cells.
Apoptosis induction in the presence of compounds (2, 3) was carried out in the following manner. W2 (apoptosis competent) and D3 (apoptosis defective) cells were plated in 96- and 6-well plates and incubated for 24 h, after which they were evenly spread at about 50% confluency. At this time, compounds dissolved in DMSO and diluted in growth medium (DMEM) were added to the cells at various concentrations. DMSO concentration was kept at 0.5% in all wells. Plates were incubated for 24, 48 and 72 h. Cell viability was determined using a modification of the MTT assay, where the reduction of yellow tertazolium salt (MTT—[…]) to purple formazan indicates mitochondrial activity, and thus cell viability. Cells were incubated with 0.5 mg/mL MTT for 3 h. Supernatant was aspirated and DMSO was added to dissolve the formazan crystals. After 30 min incubation at 37 °C, with shaking, absorbance was read at 570 nm on a Spectra MAX 250 (Molecular Devices) plate reader. Differential growth from time 0 to 48 h was calculated. Starurosporine, an apoptosis inducer, and DMSO were used as positive and negative controls, respectively.

D3 cells = experiment: Apoptosis induction assay (MTT viability), apoptosis resistant D3 cells deficient in Bak and Bax; format: cell-based, mouse
Protocol: In order to assess the pro-apoptotic activities of these compounds as a marker for their potential anticancer efficacy, methanol soluble fractions of Xenia extracts were tested for apoptosis induction in an MTT assay using the apoptosis competent W2 and apoptosis resistant D3 cells, as described in our previous work. […] To quantify apoptosis induction, viability was determined using an MTT assay. Measurements were taken at time 0 and 48 h after addition of compounds in different concentrations. Viability was calculated as the difference between time 0 (addition of compound) and 48 h. Apoptosis induction was defined as at least 20% death of W2 cells and a 10% or higher growth of D3 cells by MTT assay. The optimal concentration of the compounds for apoptosis induction was determined based on the dose response of the two cells lines by MTT assay. […]
Apoptosis induction in the presence of compounds (2, 3) was carried out in the following manner. […] Cell viability was determined using a modification of the MTT assay, where the reduction of yellow tertazolium salt (MTT—[…]) to purple formazan indicates mitochondrial activity, and thus cell viability. […] After 30 min incubation at 37 °C, with shaking, absorbance was read at 570 nm on a Spectra MAX 250 (Molecular Devices) plate reader. Differential growth from time 0 to 48 h was calculated. […]

HDAC5 = HDAC5 (Homo sapiens, UniProt Q9UQL6); experiment: HDAC inhibition assay, class II A, fluorogenic HDAC Class2a substrate; conditions: up to 100 µM
HDAC1 = HDAC1 (Homo sapiens, UniProt Q13547); experiment: HDAC inhibition assay, class I, fluorogenic peptide RHKK(Ac)AMC; format: biochemical; conditions: up to 50 µM
HDAC6 = biological target: T1, HDAC6 (Homo sapiens, UniProt Q9UBN7); experiment: HDAC inhibition assay, class II B, fluorogenic peptide RHKK(Ac)AMC; format: biochemical
T1 sequence (Q9UBN7 1-1215): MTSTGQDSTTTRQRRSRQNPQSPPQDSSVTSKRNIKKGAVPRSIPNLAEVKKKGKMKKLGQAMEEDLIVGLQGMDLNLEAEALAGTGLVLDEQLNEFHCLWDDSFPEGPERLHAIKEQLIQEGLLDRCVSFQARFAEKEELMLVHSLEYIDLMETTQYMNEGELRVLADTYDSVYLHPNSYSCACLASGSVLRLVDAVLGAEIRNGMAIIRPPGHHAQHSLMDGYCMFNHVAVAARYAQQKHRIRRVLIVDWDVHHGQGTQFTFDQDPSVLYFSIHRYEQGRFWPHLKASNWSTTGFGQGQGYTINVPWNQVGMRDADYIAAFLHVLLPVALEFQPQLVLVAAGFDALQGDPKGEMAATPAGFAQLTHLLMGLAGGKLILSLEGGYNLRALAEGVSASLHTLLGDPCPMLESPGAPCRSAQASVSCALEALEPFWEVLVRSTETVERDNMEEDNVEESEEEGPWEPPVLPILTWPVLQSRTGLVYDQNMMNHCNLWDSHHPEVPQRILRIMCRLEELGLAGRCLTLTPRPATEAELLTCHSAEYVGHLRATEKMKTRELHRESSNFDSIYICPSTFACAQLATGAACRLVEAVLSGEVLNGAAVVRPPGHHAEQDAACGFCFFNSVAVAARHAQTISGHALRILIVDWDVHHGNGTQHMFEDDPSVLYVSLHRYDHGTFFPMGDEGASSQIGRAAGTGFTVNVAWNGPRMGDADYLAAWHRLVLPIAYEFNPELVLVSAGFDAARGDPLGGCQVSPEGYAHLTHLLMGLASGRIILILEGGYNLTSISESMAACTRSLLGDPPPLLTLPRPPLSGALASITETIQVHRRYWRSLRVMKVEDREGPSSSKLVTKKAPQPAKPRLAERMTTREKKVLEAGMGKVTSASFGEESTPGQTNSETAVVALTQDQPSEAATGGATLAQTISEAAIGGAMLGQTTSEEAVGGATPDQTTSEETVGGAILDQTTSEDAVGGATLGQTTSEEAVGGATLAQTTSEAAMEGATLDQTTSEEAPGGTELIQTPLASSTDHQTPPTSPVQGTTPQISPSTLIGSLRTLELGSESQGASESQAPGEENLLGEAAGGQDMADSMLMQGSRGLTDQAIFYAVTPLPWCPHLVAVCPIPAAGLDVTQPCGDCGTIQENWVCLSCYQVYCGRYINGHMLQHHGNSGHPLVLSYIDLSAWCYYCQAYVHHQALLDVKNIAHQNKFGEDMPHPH

HDAC9 = HDAC9 (Homo sapiens, UniProt Q9UKV0); experiment: HDAC inhibition assay, class II A, fluorogenic HDAC Class2a substrate; conditions: up to 100 µM
HDAC7 = biological target: T2, HDAC7 (Homo sapiens, UniProt Q8WUI4); experiment: as above; conditions: up to 100 µM
T2 sequence (Q8WUI4 1-952): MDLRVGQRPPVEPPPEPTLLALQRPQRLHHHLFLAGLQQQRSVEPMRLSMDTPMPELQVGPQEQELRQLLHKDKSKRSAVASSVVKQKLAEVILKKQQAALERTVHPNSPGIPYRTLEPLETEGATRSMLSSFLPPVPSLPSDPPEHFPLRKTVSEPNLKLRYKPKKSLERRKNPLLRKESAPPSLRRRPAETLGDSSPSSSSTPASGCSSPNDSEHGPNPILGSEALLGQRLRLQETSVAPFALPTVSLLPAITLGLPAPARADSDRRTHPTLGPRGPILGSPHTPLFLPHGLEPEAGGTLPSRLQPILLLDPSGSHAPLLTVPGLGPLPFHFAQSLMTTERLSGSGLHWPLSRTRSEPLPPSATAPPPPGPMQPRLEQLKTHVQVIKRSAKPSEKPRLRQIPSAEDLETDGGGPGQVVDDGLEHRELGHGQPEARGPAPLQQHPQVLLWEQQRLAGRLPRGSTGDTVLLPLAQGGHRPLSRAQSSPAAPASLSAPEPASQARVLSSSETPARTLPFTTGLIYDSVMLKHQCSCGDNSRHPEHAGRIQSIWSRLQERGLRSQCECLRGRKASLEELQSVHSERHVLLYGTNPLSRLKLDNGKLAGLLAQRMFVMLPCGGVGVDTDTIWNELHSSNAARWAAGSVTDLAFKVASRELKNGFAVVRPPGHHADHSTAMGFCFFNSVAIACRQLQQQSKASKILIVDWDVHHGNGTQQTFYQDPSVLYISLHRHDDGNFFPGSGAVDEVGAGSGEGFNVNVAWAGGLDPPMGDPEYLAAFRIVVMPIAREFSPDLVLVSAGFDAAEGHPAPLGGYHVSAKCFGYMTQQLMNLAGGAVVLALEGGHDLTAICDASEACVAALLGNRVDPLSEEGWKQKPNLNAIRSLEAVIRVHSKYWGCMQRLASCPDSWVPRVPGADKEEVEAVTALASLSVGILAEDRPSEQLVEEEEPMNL

HDAC8 = biological target: T3, HDAC8 (Homo sapiens, UniProt Q9BY41); experiment: HDAC inhibition assay, class I, fluorogenic peptide RHK(Ac)K(Ac)AMC; format: biochemical; conditions: up to 50 µM
T3 sequence (Q9BY41 1-377): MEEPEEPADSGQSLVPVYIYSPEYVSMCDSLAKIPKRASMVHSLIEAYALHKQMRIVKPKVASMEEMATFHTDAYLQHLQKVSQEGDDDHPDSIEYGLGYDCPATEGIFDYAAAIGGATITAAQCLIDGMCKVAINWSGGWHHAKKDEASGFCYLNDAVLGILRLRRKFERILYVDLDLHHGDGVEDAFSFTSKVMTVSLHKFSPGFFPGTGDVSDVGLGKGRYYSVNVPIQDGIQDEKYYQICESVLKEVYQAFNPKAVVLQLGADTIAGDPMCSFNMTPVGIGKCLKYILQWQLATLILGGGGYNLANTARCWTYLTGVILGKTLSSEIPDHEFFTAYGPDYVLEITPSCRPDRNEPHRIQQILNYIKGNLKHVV

HDAC4 = HDAC4 (Homo sapiens, UniProt P56524); experiment: HDAC inhibition assay, class II A, fluorogenic HDAC Class2a substrate; conditions: up to 100 µM
HDAC2 = HDAC2 (Homo sapiens, UniProt Q92769); experiment: HDAC inhibition assay, class I, fluorogenic peptide RHKK(Ac)AMC; format: biochemical; conditions: up to 50 µM
HDAC3 = HDAC3 (Homo sapiens, UniProt O15379); experiment: as above; format: biochemical; conditions: up to 50 µM
HDAC3, sequence (O15379 whole entry): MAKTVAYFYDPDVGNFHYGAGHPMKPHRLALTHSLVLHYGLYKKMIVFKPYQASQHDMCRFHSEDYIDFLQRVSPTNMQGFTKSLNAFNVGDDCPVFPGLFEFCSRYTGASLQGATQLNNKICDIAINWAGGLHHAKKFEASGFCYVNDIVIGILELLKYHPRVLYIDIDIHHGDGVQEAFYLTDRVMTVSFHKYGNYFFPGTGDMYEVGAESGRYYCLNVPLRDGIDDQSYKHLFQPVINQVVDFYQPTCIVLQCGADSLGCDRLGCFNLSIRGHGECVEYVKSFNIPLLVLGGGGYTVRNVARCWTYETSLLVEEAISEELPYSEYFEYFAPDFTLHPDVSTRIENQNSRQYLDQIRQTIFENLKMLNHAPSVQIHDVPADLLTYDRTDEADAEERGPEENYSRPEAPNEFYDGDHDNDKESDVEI
HDAC3, sequence (Q9Y618 395-489 partner limits assumed): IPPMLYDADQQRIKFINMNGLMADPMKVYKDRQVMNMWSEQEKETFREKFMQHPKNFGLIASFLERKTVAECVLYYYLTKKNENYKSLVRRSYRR

HDAC5, sequence (Q9UQL6 whole entry): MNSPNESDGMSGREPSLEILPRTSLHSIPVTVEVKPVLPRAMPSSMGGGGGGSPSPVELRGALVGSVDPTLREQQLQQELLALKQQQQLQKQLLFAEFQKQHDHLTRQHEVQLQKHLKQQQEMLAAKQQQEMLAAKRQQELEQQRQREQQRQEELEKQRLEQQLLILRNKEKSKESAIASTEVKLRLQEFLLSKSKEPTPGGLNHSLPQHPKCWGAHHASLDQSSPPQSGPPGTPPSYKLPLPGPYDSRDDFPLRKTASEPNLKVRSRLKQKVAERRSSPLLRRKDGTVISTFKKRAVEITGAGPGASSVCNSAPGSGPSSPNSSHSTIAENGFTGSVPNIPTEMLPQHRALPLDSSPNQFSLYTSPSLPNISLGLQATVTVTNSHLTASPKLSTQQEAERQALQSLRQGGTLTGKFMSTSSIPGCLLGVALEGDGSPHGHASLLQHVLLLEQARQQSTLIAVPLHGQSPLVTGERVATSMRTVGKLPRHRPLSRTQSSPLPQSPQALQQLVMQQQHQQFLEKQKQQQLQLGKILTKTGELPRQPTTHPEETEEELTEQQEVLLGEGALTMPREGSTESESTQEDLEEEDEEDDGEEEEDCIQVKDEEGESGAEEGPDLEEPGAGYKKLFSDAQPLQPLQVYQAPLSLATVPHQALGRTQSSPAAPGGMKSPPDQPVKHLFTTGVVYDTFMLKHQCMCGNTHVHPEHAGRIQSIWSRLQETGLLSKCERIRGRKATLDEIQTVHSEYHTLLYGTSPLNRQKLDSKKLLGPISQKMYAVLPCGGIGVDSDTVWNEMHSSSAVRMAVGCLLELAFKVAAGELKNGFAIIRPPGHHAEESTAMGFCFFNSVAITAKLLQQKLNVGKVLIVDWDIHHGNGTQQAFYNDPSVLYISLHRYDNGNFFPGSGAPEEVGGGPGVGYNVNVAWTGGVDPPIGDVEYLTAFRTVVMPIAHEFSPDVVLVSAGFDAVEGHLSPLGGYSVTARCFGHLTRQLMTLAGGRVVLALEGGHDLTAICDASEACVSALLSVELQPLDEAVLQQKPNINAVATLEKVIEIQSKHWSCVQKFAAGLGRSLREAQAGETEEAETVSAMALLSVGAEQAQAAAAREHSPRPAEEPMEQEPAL
HDAC1, sequence (Q13547 whole entry): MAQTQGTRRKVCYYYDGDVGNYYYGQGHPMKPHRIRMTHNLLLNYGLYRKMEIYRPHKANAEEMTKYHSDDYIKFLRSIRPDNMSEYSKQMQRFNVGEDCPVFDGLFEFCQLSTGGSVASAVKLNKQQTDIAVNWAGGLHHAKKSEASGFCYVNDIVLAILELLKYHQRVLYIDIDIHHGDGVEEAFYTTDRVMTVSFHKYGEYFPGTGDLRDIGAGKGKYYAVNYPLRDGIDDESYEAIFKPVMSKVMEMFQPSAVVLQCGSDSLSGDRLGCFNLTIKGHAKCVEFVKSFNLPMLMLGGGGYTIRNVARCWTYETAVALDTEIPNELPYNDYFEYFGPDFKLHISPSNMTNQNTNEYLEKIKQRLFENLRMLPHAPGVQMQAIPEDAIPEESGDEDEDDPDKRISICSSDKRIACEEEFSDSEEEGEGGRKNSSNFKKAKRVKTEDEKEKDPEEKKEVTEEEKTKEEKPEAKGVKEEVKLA
HDAC9, sequence (Q9UKV0 whole entry): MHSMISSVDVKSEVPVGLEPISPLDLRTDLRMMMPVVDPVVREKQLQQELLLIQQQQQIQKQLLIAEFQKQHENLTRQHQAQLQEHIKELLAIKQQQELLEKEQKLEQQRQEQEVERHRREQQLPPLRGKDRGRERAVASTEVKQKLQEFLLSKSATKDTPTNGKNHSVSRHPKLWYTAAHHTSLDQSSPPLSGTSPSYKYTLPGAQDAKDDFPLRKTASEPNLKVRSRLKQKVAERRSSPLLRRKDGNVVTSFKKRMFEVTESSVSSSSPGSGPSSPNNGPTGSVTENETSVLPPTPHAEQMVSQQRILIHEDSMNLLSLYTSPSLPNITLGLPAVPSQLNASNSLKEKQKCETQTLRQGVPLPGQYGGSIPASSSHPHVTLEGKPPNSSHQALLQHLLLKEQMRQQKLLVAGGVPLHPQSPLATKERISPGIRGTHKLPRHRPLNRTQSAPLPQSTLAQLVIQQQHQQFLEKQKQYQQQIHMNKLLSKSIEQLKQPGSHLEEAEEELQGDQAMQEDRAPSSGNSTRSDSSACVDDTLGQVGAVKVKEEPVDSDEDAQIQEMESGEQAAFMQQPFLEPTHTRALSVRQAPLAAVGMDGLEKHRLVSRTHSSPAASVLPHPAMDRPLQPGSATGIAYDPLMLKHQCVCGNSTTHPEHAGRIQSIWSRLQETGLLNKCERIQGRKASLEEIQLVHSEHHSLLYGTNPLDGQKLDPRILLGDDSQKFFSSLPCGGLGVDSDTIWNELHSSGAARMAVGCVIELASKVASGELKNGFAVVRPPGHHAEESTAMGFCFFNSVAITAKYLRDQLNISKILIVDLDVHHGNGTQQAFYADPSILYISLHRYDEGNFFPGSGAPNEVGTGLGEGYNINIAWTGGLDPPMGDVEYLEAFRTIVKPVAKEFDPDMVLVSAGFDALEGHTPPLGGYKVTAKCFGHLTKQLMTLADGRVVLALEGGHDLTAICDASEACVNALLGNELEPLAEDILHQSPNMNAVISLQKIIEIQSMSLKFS
HDAC4, sequence (P56524 whole entry): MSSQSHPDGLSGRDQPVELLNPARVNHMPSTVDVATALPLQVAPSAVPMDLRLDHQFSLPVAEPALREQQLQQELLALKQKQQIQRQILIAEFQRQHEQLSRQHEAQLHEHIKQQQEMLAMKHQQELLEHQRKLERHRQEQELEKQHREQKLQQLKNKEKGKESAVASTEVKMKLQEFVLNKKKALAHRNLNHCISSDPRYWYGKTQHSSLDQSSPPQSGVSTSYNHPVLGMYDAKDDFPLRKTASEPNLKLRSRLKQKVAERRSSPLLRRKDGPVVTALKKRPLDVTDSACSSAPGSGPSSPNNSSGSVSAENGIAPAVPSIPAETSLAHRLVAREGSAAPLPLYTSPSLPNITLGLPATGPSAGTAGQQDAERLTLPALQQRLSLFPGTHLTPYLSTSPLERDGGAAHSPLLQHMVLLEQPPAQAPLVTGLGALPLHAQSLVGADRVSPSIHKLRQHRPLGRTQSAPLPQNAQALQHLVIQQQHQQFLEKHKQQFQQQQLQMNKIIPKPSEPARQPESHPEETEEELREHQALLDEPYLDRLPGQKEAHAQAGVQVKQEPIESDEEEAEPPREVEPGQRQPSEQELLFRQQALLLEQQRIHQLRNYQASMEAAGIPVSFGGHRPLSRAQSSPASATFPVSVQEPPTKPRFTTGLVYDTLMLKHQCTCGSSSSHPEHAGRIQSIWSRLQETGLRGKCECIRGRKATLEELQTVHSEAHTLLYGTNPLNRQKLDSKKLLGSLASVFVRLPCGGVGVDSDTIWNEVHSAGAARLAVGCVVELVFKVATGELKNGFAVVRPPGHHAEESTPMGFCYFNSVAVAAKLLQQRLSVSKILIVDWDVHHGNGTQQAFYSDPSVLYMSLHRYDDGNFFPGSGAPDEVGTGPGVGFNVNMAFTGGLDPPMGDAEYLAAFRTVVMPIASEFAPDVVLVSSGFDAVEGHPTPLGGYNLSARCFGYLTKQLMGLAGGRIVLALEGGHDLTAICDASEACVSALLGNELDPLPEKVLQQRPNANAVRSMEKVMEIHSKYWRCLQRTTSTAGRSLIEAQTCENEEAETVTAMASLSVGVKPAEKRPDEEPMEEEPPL
HDAC2, sequence (Q92769 whole entry): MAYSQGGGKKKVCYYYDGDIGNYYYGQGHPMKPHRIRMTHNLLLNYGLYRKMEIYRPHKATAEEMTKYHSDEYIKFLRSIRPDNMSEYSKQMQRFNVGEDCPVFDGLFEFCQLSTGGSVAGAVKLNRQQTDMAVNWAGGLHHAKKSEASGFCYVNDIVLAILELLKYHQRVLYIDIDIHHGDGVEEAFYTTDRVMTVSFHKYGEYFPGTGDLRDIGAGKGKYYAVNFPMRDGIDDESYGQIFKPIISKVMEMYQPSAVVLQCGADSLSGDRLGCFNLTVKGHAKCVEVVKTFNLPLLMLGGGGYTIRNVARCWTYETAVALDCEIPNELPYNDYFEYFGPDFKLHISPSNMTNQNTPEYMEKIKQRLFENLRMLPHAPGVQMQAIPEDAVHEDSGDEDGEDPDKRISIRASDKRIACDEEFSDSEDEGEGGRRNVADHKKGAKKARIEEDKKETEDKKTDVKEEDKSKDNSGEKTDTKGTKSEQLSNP

| SMILES | cytotoxicity (P-388) | cytotoxicity (HT-29) | cytotoxicity (A549) | optimal concentration for apoptosis induction (W2 cells) | cell death in W2 cells (W2 cells) | cell death in D3 cells (D3 cells) | inhibition of HDAC5 (HDAC5) | inhibition of HDAC1 (HDAC1) | inhibition of HDAC6 (HDAC6) | IC50 (HDAC6; 10-dose, 3-fold serial dilution, Compound 3 in duplicate starting at 120 µM, read-out: IC50) | IC50 (HDAC6; as stated in text and legend of Figure 6, read-out: IC50) | HILLSLOPE (HDAC6; curve fit) | IC50 (HDAC6; curve fit printed in the picture of Figure 6, read-out: HDAC 6: EC50) | inhibition of HDAC9 (HDAC9) | inhibition of HDAC7 (HDAC7) | inhibition of HDAC8 (HDAC8) | inhibition of HDAC4 (HDAC4) | inhibition of HDAC2 (HDAC2) | inhibition of HDAC3 (HDAC3) |
| --- | --- | --- | --- | --- | --- | --- | --- | --- | --- | --- | --- | --- | --- | --- | --- | --- | --- | --- | --- |
| C=C1CC[C@@H]2O[C@@]2(C)CC[C@H](/C(=C\CC2OC2(C)C)COC(C)=O)[C@H]1C(=O)OC (stereo partly shown) [xenitacin] | most active compound in its group | most active compound in its group | most active compound in its group |  |  |  |  |  |  |  |  |  |  |  |  |  |  |  |  |
| C=C1CC/C=C(\C)CC[C@@H]2C(C(CC3OC3(C)C)OC(C)=O)=CO[C@H](OC)[C@@H]12 (relative stereo) [Compound 2] |  |  |  | 11.5 µM | induce measurable cell death in W2 | not in D3 cells |  |  |  |  |  |  |  |  |  |  |  |  |  |
| C=C1CC[C@@H]2O[C@@]2(C)CC[C@H](/C(=C/CC2OC2(C)C)CO)[C@H]1C(=O)OC (relative stereo) [Compound 3] |  |  |  | 1.2 µM | induce measurable cell death in W2 | not in D3 cells | did not significantly inhibit | did not significantly inhibit | inhibits selectively HDAC6 in high micromolar concentrations | 80.9 µM | ~80 µM | −1.19 | 80.9 µM | did not significantly inhibit | did not significantly inhibit | did not significantly inhibit | did not significantly inhibit | did not significantly inhibit | did not significantly inhibit |
